Laboratory results as given in patent US12344623B2, “Thiazolopyridine derivatives as adenosine receptor antagonists” (Merck Patent GmbH, priority 2019, dated 2025).

Experiments:
Assay type in all cases: cell-based
mouse Pan T cells = experiment: mTcell assay, cAMP, agonist NECA; conditions: mouse Pan T cells, agonist NECA 1 uM
Outline: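 Mouse splenic Pan T cells, pre-activated 48 hours with anti-CD3/CD28 beads, then plated at 50,000 cells/well in serum-free medium with 0.1% BSA. Compounds tested in 10-point dose response from 10 uM; after 30 minutes at 37° C, cAMP measured by HTRF.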

human A2A receptor [1] = biological target: T1, human A2A receptor (Homo sapiens, UniProt P29274); experiment: Human T cells, endogenous A2A receptor, cAMP, agonist NECA; conditions: read-out: hTcell data, cAMP, IC50
Outline: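 Pan T cells isolated from fresh human blood PBMC, endogenously expressing Gs-coupled A2A, treated with compounds. Cellular cAMP measured by HTRF after 1 h; data normalized to inhibitor control and DMSO neutral control, then curve-fitted.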

human A2A receptor [2] = biological target: T1, human A2A receptor; experiment: Functional A2A receptor activity, recombinant HEK293 cells, cAMP (HTRF), agonist NECA; design: expressed in transfected cells; host or cells: HEK293; conditions: read-out: Functional A2A receptor activity, HEK293, cAMP, IC50
Outline: (§1)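 Cellular cAMP measured by HTRF after 30 min incubation of cells with forskolin, test compounds and agonist. Data normalized to inhibitor control and DMSO neutral control, then curve-fitted.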

human A2B receptor = biological target: T2, human A2B receptor (Homo sapiens, UniProt P29275); experiment: Functional A2B receptor activity, recombinant HEK293 cells, cAMP (HTRF), agonist NECA; conditions: read-out: Functional A2B receptor activity, HEK293, cAMP, IC50
T2 construct: expressed in transfected cells; host or cells: HEK293
T2 sequence (P29275 1-332): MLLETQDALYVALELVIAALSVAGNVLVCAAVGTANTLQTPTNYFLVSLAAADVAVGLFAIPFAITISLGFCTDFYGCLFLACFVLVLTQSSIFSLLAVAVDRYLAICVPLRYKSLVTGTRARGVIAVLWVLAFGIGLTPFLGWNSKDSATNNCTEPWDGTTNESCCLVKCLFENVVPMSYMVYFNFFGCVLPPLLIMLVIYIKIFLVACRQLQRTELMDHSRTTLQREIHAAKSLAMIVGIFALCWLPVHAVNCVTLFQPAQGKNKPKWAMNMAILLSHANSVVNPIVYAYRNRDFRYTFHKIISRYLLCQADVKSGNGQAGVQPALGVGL
Outline: as §1

Measured: IC50

T1 sequence (P29274 whole entry): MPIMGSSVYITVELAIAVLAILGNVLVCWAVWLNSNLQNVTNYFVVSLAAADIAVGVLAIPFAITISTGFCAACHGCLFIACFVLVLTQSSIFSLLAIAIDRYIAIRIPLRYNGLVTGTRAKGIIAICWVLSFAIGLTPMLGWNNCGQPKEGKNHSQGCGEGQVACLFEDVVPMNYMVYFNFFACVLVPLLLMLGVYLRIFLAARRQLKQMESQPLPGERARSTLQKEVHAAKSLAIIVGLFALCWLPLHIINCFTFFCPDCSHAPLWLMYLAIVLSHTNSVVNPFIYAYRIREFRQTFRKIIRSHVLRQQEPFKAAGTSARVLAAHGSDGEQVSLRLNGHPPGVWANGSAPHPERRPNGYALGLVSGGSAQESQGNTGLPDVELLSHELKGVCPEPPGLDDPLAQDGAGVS

COc1ncc(C2=CCOCC2)c2sc(NC(=O)N3CC[C@@]4(CCCOC4)C3)nc12 [Compound 25, (S)-7-Oxa-2-aza-spiro[4.5]decane-2-carboxylic acid [7-(3,6-dihydro-2H-pyran-4-yl)-4-methoxy-thiazolo[4,5-c]pyridin-2-yl]-amide]
< 10 nM: all assays above
